In patent publication US10457655B2, “Compounds and compositions for inhibition of FASN” (FORMA Therapeutics, Inc., priority 2013, dated 2019):

biological target: FASN enzyme (Homo sapiens, UniProt P49327); assay: Enzymatic Assay for FASN Inhibitors; type: biochemical; conditions: not given
How it was run: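 40 nM FASN preincubated with compound 60 min at 25° C in HEPES pH 7.3 buffer with 0.04% Triton X-100. Then 20 μM acetyl-CoA, 60 μM malonyl-CoA and 100 μM NADPH added for 90 min, quenched with CPM thiol probe; fluorescence 360/530 nm, IC50 by four-parameter fit.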

FASN enzyme, sequence (P49327 whole entry): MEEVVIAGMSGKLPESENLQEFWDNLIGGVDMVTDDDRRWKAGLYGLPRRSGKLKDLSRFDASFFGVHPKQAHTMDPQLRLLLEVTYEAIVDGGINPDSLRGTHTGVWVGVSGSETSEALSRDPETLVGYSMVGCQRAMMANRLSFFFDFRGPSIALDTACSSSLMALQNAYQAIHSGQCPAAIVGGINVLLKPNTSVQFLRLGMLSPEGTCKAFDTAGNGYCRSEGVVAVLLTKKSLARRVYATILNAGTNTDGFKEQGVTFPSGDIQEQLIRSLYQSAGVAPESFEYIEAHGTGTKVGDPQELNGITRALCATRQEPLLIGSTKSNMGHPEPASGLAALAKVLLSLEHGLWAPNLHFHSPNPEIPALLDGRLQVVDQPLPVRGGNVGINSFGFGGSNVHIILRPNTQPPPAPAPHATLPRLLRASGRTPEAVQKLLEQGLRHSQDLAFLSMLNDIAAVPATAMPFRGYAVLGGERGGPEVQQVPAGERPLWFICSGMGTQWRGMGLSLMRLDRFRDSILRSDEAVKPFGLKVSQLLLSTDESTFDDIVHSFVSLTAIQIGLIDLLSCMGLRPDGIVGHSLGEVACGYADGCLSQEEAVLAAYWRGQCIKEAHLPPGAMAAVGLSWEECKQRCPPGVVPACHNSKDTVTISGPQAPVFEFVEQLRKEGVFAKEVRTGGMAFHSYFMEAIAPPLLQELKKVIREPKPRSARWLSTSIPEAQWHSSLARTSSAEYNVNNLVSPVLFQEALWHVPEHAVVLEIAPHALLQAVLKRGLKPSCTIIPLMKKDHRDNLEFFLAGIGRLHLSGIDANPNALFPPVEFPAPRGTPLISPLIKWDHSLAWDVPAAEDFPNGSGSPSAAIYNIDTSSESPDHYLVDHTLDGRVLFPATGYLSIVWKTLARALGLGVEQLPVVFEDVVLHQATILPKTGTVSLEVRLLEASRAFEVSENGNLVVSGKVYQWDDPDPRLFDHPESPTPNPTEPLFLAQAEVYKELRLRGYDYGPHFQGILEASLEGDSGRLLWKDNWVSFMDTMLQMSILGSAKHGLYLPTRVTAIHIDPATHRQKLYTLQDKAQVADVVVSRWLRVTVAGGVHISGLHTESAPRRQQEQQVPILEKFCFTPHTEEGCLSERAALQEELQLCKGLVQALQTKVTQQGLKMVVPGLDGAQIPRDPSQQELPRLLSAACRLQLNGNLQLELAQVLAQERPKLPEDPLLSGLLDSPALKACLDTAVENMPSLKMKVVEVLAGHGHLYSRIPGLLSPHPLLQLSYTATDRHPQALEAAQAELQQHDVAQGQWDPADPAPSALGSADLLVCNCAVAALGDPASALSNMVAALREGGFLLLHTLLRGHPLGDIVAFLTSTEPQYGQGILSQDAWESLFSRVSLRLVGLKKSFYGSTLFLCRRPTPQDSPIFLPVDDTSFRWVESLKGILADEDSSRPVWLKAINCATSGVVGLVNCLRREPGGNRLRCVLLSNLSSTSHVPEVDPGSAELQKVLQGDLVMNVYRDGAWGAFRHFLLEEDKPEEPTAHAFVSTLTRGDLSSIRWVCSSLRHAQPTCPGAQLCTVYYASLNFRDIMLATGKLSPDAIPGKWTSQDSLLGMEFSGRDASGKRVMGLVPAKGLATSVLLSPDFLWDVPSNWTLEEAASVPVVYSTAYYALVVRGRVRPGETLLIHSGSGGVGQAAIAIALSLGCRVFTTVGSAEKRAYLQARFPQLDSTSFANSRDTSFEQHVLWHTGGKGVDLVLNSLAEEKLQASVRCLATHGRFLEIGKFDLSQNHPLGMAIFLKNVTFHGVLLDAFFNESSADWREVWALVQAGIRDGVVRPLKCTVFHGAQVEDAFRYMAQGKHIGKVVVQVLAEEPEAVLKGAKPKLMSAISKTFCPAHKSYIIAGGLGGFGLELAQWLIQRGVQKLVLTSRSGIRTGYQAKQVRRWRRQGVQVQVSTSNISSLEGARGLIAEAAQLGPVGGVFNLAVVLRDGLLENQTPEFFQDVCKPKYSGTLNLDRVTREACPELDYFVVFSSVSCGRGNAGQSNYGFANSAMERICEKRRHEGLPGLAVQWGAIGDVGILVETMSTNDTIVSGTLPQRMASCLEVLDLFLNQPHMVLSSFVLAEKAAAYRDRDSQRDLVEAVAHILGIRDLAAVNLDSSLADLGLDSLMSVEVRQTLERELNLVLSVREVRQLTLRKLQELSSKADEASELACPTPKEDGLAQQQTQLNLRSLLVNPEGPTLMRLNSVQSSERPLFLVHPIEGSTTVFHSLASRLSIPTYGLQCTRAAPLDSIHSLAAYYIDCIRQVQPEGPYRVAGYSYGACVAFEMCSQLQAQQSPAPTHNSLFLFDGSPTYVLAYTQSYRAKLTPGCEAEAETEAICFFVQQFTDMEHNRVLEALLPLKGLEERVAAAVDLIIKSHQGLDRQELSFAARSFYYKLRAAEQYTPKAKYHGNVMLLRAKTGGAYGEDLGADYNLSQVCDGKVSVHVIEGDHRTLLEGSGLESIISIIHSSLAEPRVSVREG

Row | Compound | IC50 [µM]
1 | Cn1ccc2cc(-c3ccc(C(=O)N4CCN(C(=O)C5(O)CC5)CC4)cc3)ccc21 [1-[(4-{[4-(1-methyl-1H-indol-5-yl)phenyl]carbonyl}piperazin-1-yl)carbonyl]cyclopropan-1-ol] | < 0.5
2 | O=C(c1ccc(-c2cc3ccccc3[nH]2)cc1)N1CCN(C(=O)C2(O)CC2)CC1 [1-[(4-{[4-(1H-indol-2-yl)phenyl]carbonyl}piperazin-1-yl)carbonyl]cyclopropan-1-ol] | < 0.5
3 | O=C(c1ccc(-c2cccc(Cl)c2Cl)cc1)N1CCN(C(=O)C2(O)CC2)CC1 [1-[(4-{[4-(2,3-dichlorophenyl)phenyl]carbonyl}piperazin-1-yl)carbonyl]cyclopropan-1-ol] | < 0.5
4 | O=C(c1ccc(-c2cc(Cl)ccc2Cl)cc1)N1CCN(C(=O)C2(O)CC2)CC1 [1-[(4-{[4-(2,5-dichlorophenyl)phenyl]carbonyl}piperazin-1-yl)carbonyl]cyclopropan-1-ol] | < 0.5
5 | O=C(c1ccc(-c2ccc(F)cc2Cl)cc1)N1CCN(C(=O)C2(O)CC2)CC1 [1-[(4-{[4-(2-chloro-4-fluorophenyl)phenyl]carbonyl}piperazin-1-yl)carbonyl]cyclopropan-1-ol] | < 0.5
6 | O=C(c1ccc(-c2ccc(Cl)c(Cl)c2)cc1)N1CCN(C(=O)C2(O)CC2)CC1 [1-[(4-{[4-(3,4-dichlorophenyl)phenyl]carbonyl}piperazin-1-yl)carbonyl]cyclopropan-1-ol] | < 0.5
7 | O=C(c1ccc(-c2cccc(Cl)c2)cc1)N1CCN(C(=O)C2(O)CC2)CC1 [1-[(4-{[4-(3-chlorophenyl)phenyl]carbonyl}piperazin-1-yl)carbonyl]cyclopropan-1-ol] | < 0.5
8 | COc1cc(Cl)ccc1-c1ccc(C(=O)N2CCN(C(=O)C3(O)CC3)CC2)cc1 [1-[(4-{[4-(4-chloro-2-methoxyphenyl)phenyl]carbonyl}piperazin-1-yl)carbonyl]cyclopropan-1-ol] | < 0.5
9 | O=C(c1ccc(-c2ccc(Cl)c(F)c2)cc1)N1CCN(C(=O)C2(O)CC2)CC1 [1-[(4-{[4-(4-chloro-3-fluorophenyl)phenyl]carbonyl}piperazin-1-yl)carbonyl]cyclopropan-1-ol] | < 0.5
10 | O=C(c1ccc(-c2nc3cc(Cl)ccc3[nH]2)cc1)N1CCN(C(=O)C2(O)CC2)CC1 [1-[(4-{[4-(5-chloro-1H-1,3-benzodiazol-2-yl)phenyl]carbonyl}piperazin-1-yl)carbonyl]cyclopropan-1-ol] | < 0.5
11 | O=C(c1ccc(-c2ccc3cc(F)ccc3n2)cc1)N1CCN(C(=O)C2(O)CC2)CC1 [1-[(4-{[4-(6-fluoroquinolin-2-yl)phenyl]carbonyl}piperazin-1-yl)carbonyl]cyclopropan-1-ol] | < 0.5
12 | O=C(c1ccc(-c2cnc3ccccc3c2)cc1)N1CCN(C(=O)C2(O)CC2)CC1 [1-[(4-{[4-(quinolin-3-yl)phenyl]carbonyl}piperazin-1-yl)carbonyl]cyclopropan-1-ol] | < 0.5

same assay, conditions: FASN enzymatic assay; Table 2-2

Row | Compound | IC50 [µM]
13 | O=C(c1ccc(-c2ccc3nonc3c2)cc1)N1CCN(C(=O)C2(O)CC2)CC1 [1-[(4-{[4-(2,1,3-benzoxadiazol-5-yl)phenyl]carbonyl}piperazin-1-yl)carbonyl]cyclopropan-1-ol] | 0.5 to 5
14 | COc1cccc(-c2ccc(C(=O)N3CCN(C(=O)C4(O)CC4)CC3)cc2)c1F [1-[(4-{[4-(2-fluoro-3-methoxyphenyl)phenyl]carbonyl}piperazin-1-yl)carbonyl]cyclopropan-1-ol] | 0.5 to 5
15 | Cc1cccc(-c2ccc(C(=O)N3CCN(C(=O)C4(O)CC4)CC3)cc2)c1F [1-[(4-{[4-(2-fluoro-3-methylphenyl)phenyl]carbonyl}piperazin-1-yl)carbonyl]cyclopropan-1-ol] | 0.5 to 5
16 | COc1ccc(-c2ccc(C(=O)N3CCN(C(=O)C4(O)CC4)CC3)cc2)c(F)c1 [1-[(4-{[4-(2-fluoro-4-methoxyphenyl)phenyl]carbonyl}piperazin-1-yl)carbonyl]cyclopropan-1-ol] | 0.5 to 5
17 | Cc1ccc(F)c(-c2ccc(C(=O)N3CCN(C(=O)C4(O)CC4)CC3)cc2)c1 [1-[(4-{[4-(2-fluoro-5-methylphenyl)phenyl]carbonyl}piperazin-1-yl)carbonyl]cyclopropan-1-ol] | 0.5 to 5
18 | Cc1ccc(-c2ccc(C(=O)N3CCN(C(=O)C4(O)CC4)CC3)cc2)cc1F [1-[(4-{[4-(3-fluoro-4-methylphenyl)phenyl]carbonyl}piperazin-1-yl)carbonyl]cyclopropan-1-ol] | 0.5 to 5
19 | Cc1noc2cc(-c3ccc(C(=O)N4CCN(C(=O)C5(O)CC5)CC4)cc3)ccc12 [1-[(4-{[4-(3-methyl-1,2-benzoxazol-6-yl)phenyl]carbonyl}piperazin-1-yl)carbonyl]cyclopropan-1-ol] | 0.5 to 5
20 | O=C(c1ccc(-c2nc3c(Cl)cccc3[nH]2)cc1)N1CCN(C(=O)C2(O)CC2)CC1 [1-[(4-{[4-(4-chloro-1H-1,3-benzodiazol-2-yl)phenyl]carbonyl}piperazin-1-yl)carbonyl]cyclopropan-1-ol] | 0.5 to 5
21 | O=C(c1ccc(-c2nc3cc(F)c(F)cc3[nH]2)cc1)N1CCN(C(=O)C2(O)CC2)CC1 [1-[(4-{[4-(5,6-difluoro-1H-1,3-benzodiazol-2-yl)phenyl]carbonyl}piperazin-1-yl)carbonyl]cyclopropan-1-ol] | 0.5 to 5
22 | O=C(c1ccc(-c2nc3cc(F)ccc3[nH]2)cc1)N1CCN(C(=O)C2(O)CC2)CC1 [1-[(4-{[4-(5-fluoro-1H-1,3-benzodiazol-2-yl)phenyl]carbonyl}piperazin-1-yl)carbonyl]cyclopropan-1-ol] | 0.5 to 5
23 | COc1ccc2[nH]c(-c3ccc(C(=O)N4CCN(C(=O)C5(O)CC5)CC4)cc3)nc2c1 [1-[(4-{[4-(5-methoxy-1H-1,3-benzodiazol-2-yl)phenyl]carbonyl}piperazin-1-yl)carbonyl]cyclopropan-1-ol] | 0.5 to 5
24 | O=C(c1ccc(-c2ccc3ncccc3c2)cc1C(F)(F)F)N1CCN(C(=O)C2(O)CC2)CC1 [1-[(4-{[4-(quinolin-6-yl)-2-(trifluoromethyl)phenyl]carbonyl}piperazin-1-yl)carbonyl]cyclopropan-1-ol] | 0.5 to 5

same assay, conditions: FASN enzymatic assay; Table 2-3

Row | Compound | IC50 [µM]
25 | O=C(c1ccc(-c2cccc(F)c2F)cc1)N1CCN(C(=O)C2(O)CC2)CC1 [1-[(4-{[4-(2,3-difluorophenyl)phenyl]carbonyl}piperazin-1-yl)carbonyl]cyclopropan-1-ol] | ≥ 5
26 | COc1c(Cl)ccc(-c2ccc(C(=O)N3CCN(C(=O)C4(O)CC4)CC3)cc2)c1Cl [1-[(4-{[4-(2,4-dichloro-3-methoxyphenyl)phenyl]carbonyl}piperazin-1-yl)carbonyl]cyclopropan-1-ol] | ≥ 5
27 | O=C(c1ccc(-c2cc(F)ccc2F)cc1)N1CCN(C(=O)C2(O)CC2)CC1 [1-[(4-{[4-(2,5-difluorophenyl)phenyl]carbonyl}piperazin-1-yl)carbonyl]cyclopropan-1-ol] | ≥ 5
28 | COc1ccc(-c2ccc(C(=O)N3CCN(C(=O)C4(O)CC4)CC3)cc2)c(OC)n1 [1-[(4-{[4-(2,6-dimethoxypyridin-3-yl)phenyl]carbonyl}piperazin-1-yl)carbonyl]cyclopropan-1-ol] | ≥ 5
29 | COc1ccc(-c2ccc(C(=O)N3CCN(C(=O)C4(O)CC4)CC3)cc2)c(Cl)c1 [1-[(4-{[4-(2-chloro-4-methoxyphenyl)phenyl]carbonyl}piperazin-1-yl)carbonyl]cyclopropan-1-ol] | ≥ 5
30 | O=C(c1ccc(-c2cc(F)ccc2Cl)cc1)N1CCN(C(=O)C2(O)CC2)CC1 [1-[(4-{[4-(2-chloro-5-fluorophenyl)phenyl]carbonyl}piperazin-1-yl)carbonyl]cyclopropan-1-ol] | ≥ 5
31 | Cc1ccc(-c2ccc(C(=O)N3CCN(C(=O)C4(O)CC4)CC3)cc2)c(F)c1 [1-[(4-{[4-(2-fluoro-4-methylphenyl)phenyl]carbonyl}piperazin-1-yl)carbonyl]cyclopropan-1-ol] | ≥ 5
32 | COc1ccc(F)c(-c2ccc(C(=O)N3CCN(C(=O)C4(O)CC4)CC3)cc2)c1 [1-[(4-{[4-(2-fluoro-5-methoxyphenyl)phenyl]carbonyl}piperazin-1-yl)carbonyl]cyclopropan-1-ol] | ≥ 5
33 | COc1c(F)cccc1-c1ccc(C(=O)N2CCN(C(=O)C3(O)CC3)CC2)cc1 [1-[(4-{[4-(3-fluoro-2-methoxyphenyl)phenyl]carbonyl}piperazin-1-yl)carbonyl]cyclopropan-1-ol] | ≥ 5
34 | COc1cnccc1-c1ccc(C(=O)N2CCN(C(=O)C3(O)CC3)CC2)cc1 [1-[(4-{[4-(3-methoxypyridin-4-yl)phenyl]carbonyl}piperazin-1-yl)carbonyl]cyclopropan-1-ol] | ≥ 5
35 | Cc1cccc(-c2ccc(C(=O)N3CCN(C(=O)C4(O)CC4)CC3)cc2)c1 [1-[(4-{[4-(3-methylphenyl)phenyl]carbonyl}piperazin-1-yl)carbonyl]cyclopropan-1-ol] | ≥ 5
36 | COc1cc(F)c(F)cc1-c1ccc(C(=O)N2CCN(C(=O)C3(O)CC3)CC2)cc1 [1-[(4-{[4-(4,5-difluoro-2-methoxyphenyl)phenyl]carbonyl}piperazin-1-yl)carbonyl]cyclopropan-1-ol] | ≥ 5
37 | Cc1ccc(-c2ccc(C(=O)N3CCN(C(=O)C4(O)CC4)CC3)cc2)cc1 [1-[(4-{[4-(4-methylphenyl)phenyl]carbonyl}piperazin-1-yl)carbonyl]cyclopropan-1-ol] | ≥ 5
38 | Cc1ccc(F)cc1-c1ccc(C(=O)N2CCN(C(=O)C3(O)CC3)CC2)cc1 [1-[(4-{[4-(5-fluoro-2-methylphenyl)phenyl]carbonyl}piperazin-1-yl)carbonyl]cyclopropan-1-ol] | ≥ 5
39 | O=C(c1ccc(-c2cncc(F)c2)cc1)N1CCN(C(=O)C2(O)CC2)CC1 [1-[(4-{[4-(5-fluoropyridin-3-yl)phenyl]carbonyl}piperazin-1-yl)carbonyl]cyclopropan-1-ol] | ≥ 5
40 | Cc1ccc(-c2ccc(C(=O)N3CCN(C(=O)C4(O)CC4)CC3)cc2)cn1 [1-[(4-{[4-(6-methylpyridin-3-yl)phenyl]carbonyl}piperazin-1-yl)carbonyl]cyclopropan-1-ol] | ≥ 5
